Where two headings read alike, the source gives them in different places.
How the values were obtained:
6 Hz-induced seizures [1] = assay: 6 Hz seizure test in mice, with isobolographic analysis of drug combinations; conditions: for anticonvulsant effects against 6 Hz seizure: i.p., mice
epileptic seizures = assay: ED50 of the individual compounds, seizure model not given (various models of the rat and the mouse); assay type: in vivo; conditions: ip
Procedure: The skilled person may determine the ED50 values by methods known in the art. It is preferred that the ED50 values are determined by preclinical or/and clinical trials. Published ED50 values may also be used. […] Tables 5 and 6 disclose specific ED50 values obtained in various models of the rat and the mouse. A person skilled in the art knows that in a particular model, among different species, ED50 values show a variation by a factor of up to 5 or even larger.

[2] = test system: pattern of neuronal activation; conditions: Duncan and Kohn (2004); cited from earlier work
[3] = test system: refractory self-sustaining status epilepticus; conditions: in vivo; cited from earlier work
[4] = test system: lithium-pilocarpine-induced status epilepticus; conditions: Bialer et al., 2001, 2002; cited from earlier work
[5] = test system: drug metabolizing enzymes; assay: Inhibition, induction and metabolism by drug metabolizing enzymes; conditions: a large variety of enzymes
[6] = test system: cobalt-homocysteine-induced status epilepticus; conditions: Bialer et al., 2001, 2002; cited from earlier work
[7] = Clinical population pharmacokinetic analysis
mouse cortical neurons = mouse cortical neurons (Bialer et al., 2002); cited from earlier work
[8] = test system: 6 Hz psychomotor seizures; conditions: determined in the anticonvulsant drug screening program of NINDS; cited from earlier work
6 Hz-induced seizures [9] = conditions: literature observation (Gower et al., 1993; Klitgaard et al., 1998); cited from earlier work
[10] = approximate value, model not stated, read-out: ED50

NC(=O)N1c2ccccc2C=Cc2ccccc21 [CBZ, carbamazepine]
anticonvulsant effects against 6 Hz seizure (6 Hz-induced seizures [1]; drugs administered alone): dose-dependent anticonvulsant effects | ED50 (epileptic seizures; [10]): ~50 mg/kg

NCC1(CC(=O)O)CCCCC1 [GBP, gabapentin]
anticonvulsant effects against 6 Hz seizure (6 Hz-induced seizures [1]; drugs administered alone): dose-dependent anticonvulsant effects | ED50 (epileptic seizures): ~220 mg/kg

COC[C@@H](NC(C)=O)C(=O)NCc1ccccc1 [LCM, R-2-acetamido-N-benzyl-3-methoxypropionamide]
ED50 (6 Hz-induced seizures [1]; Mus musculus, ip, 0.5 h): 10.1 mg/kg | anticonvulsant effects against 6 Hz seizure (6 Hz-induced seizures [1]; drugs administered alone): dose-dependent anticonvulsant effects | potency compared to the other tested AEDs (6 Hz-induced seizures [1]; drugs administered alone, lowest ED50): highest potency | ED50 (epileptic seizures): ~10 mg/kg | specific pattern of neuronal activation [2]: attenuated | activity against refractory self-sustaining status epilepticus [3]: active | efficacy against lithium-pilocarpine-induced status epilepticus [4]: effective | inhibition or induction of drug metabolizing enzymes [5]: does not inhibit or induce | efficacy against cobalt-homocysteine-induced status epilepticus [6]: effective | effect of LCM on plasma levels of AEDs or vice versa [7]: no evidence for any effect | GABA currents (mouse cortical neurons): increased | glutamate transmission (mouse cortical neurons): inhibited glutamate transmission indirectly | ED50 [8]: 9.9 mg/kg

CC[C@@H](C(N)=O)N1CCCC1=O [LEV, levetiracetam]
anticonvulsant effects against 6 Hz seizure (6 Hz-induced seizures [1]; drugs administered alone): dose-dependent anticonvulsant effects | ED50 (epileptic seizures): ~20 mg/kg | protection in the 6Hz test (6 Hz-induced seizures [9]): complete protection

Nc1nnc(-c2cccc(Cl)c2Cl)c(N)n1 [LTG, lamotrigine]
anticonvulsant effects against 6 Hz seizure (6 Hz-induced seizures [1]; drugs administered alone): dose-dependent anticonvulsant effects | ED50 (epileptic seizures): ~85 mg/kg

O=C1NC(=O)C(c2ccccc2)(c2ccccc2)N1 [PHT, phenytoin]
anticonvulsant effects against 6 Hz seizure (6 Hz-induced seizures [1]; drugs administered alone): dose-dependent anticonvulsant effects

CC1(C)O[C@@H]2[C@@H](CO[C@@]3(COS(N)(=O)=O)OC(C)(C)O[C@@H]23)O1 [TPM, topiramate]
anticonvulsant effects against 6 Hz seizure (6 Hz-induced seizures [1]; drugs administered alone): dose-dependent anticonvulsant effects | ED50 (epileptic seizures; [10]): ~300 mg/kg
